Literature values, collected in patent publication US20210007979A1 (FULTON MEDICINAL S.P.A., priority 2018, published 2021).
Where a name gives a salt, the structure may show the parent alone.

Experiments:
[1] = not given; remark: listed apart in the source

## CCCc1nn(C)c2c(=O)[nH]c(-c3cc(S(=O)(=O)N4CCN(C)CC4)ccc3OCC)nc12 [sildenafil citrate, Sildenafil citrate]
other
  Permeability of the oral mucosae: low permeability
[1]
  Solubility in water: sparingly soluble
